From ChEMBL document CHEMBL1201862, “PubChem BioAssay data set” (2004) come the findings set out here.

The structures appear in SMILES notation.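 Method: 48-hour compound exposure of cells in 96-well plates, five concentrations, linear interpolation of endpoints. GI50: concentration for 50% inhibition of growth.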 Activity calls are given as the source filed them. No stated cut-off is given here; in the data, active = GI50 up to about 1.1 µM and inactive = higher.

What all share (test): growth of human tumour cells (NCI), 48 h
Assay [1] relates to SK-OV-3.
For assay [2], the system named is EKVX.
The subject of assay [3] is SK-MEL-28.
For assay [4], the system named is OVCAR-5.
In assay [5] the test system is SK-MEL-2.
In assay [6] the test system is NCI-H23.
Assay [7] has as its system Malme-3M.
Assay [8] concerns TK-10.
Assay [9] relates to K562.
In assay [10] the test system is COLO 205.
Assay [11] has as its system U-251.
Assay [12] has as its system HCT-116.
Assay [13] has as its system UACC-62.
Assay [14] has as its system SF-295.
The test system of assay [15] is UACC-257.

As for `O=C(N/N=C1/C(=O)N(c2ccc(Cl)cc2Cl)C(=O)C(=O)C1c1nc2ccccc2o1)c1ccccc1O` (stereo not given), the GI50 in [1] was 33 µM (inactive); in assay [2], 45.7 µM (inactive); in [3] it was 29.6 µM (inactive); in [4] it was > 100 µM (inactive); in assay [5], 41.3 µM (inactive); in assay [6], 25.7 µM (inactive). Besides, the GI50 is 27.3 µM (inactive) in [7]; 38.9 µM (inactive) in assay [8]; 47 µM (inactive) in assay [9]; 52.7 µM (inactive) in assay [10]; > 10 µM (inactive) in assay [11]; 37.2 µM (inactive) in [12]. Further, in assay [13], the GI50 is 20.4 µM (inactive).
`C=CCC1(C)CCCCC1(O)C[S+]([O-])c1ccccc1` (stereo not given): the GI50 in [14], in assay [1], in assay [2], in [3], in assay [4] and in assay [7] was > 100 µM (inactive) throughout. The GI50 in assay [8], in [15], in [10], in assay [11], in assay [12] and in assay [13] was > 100 µM (inactive) in each case.
`C=C1C(=O)OC2(C)C3CCC(C3)C12` (stereo not given): the GI50 was > 100 µM (inactive) in assay [14]; > 100 µM (inactive) in [1]; 81.8 µM (inactive) in assay [2]; > 100 µM (inactive) in [3]; > 100 µM (inactive) in [4]; 39.4 µM (inactive) in [5]. Also, the GI50 was 30.8 µM (inactive) in assay [6]; 44.1 µM (inactive) in assay [7]; 36.3 µM (inactive) in [8]; 33.3 µM (inactive) in assay [9]; 23.1 µM (inactive) in assay [10]; > 100 µM (inactive) in [11]. For the same compound, the GI50 is 37.6 µM (inactive) in assay [12] and 63.8 µM (inactive) in assay [13].
As to `O=C(CSC(=S)N1CCOCC1)Nc1nc2c(s1)CCCC2`, the GI50 is > 100 µM (inactive) in assay [14]; > 100 µM (inactive) in [1]; 99.5 µM (inactive) in assay [2]; > 100 µM (inactive) in [3]; > 100 µM (inactive) in assay [4]; > 100 µM (inactive) in assay [5]. In addition, the GI50 in assay [6] is 97.7 µM (inactive); in [7] it was 45.3 µM (inactive); in assay [8], > 100 µM (inactive); in assay [15], 45.7 µM (inactive); in assay [10] it was > 100 µM (inactive); in assay [11], > 100 µM (inactive). In addition, the GI50 in assay [12] was > 100 µM (inactive).
As for `O=c1ccc2ccc(O)c3c4c(O)ccc5ccc(=O)c(c1c23)c54`, the GI50 in [14] is 2.69 µM (inactive); in assay [1], 4.02 µM (inactive); in [2] it was 3.38 µM (inactive); in [3], 1.14 µM (inactive); in [5], 1.45 µM (inactive); in assay [6], 1.66 µM (inactive). In addition, the GI50 in assay [7] was 0.371 µM (active); in assay [8] it was 2.67 µM (inactive); in assay [15] it was 1.49 µM (inactive); in assay [9], 2.07 µM (inactive); in [10], 1.91 µM (inactive); in assay [11] it was 1.29 µM (inactive). For the same compound, the GI50 is 1.43 µM (inactive) in [12] and 0.382 µM (active) in [13].
Turning to `N#CCCN(CCC#N)c1ccc(/C=N\c2nc(-c3ccccc3)cs2)cc1`, the GI50 is 45.7 µM (inactive) in assay [14]; > 100 µM (inactive) in assay [1]; > 100 µM (inactive) in assay [2]; > 100 µM (inactive) in assay [3]; > 100 µM (inactive) in [4]; > 100 µM (inactive) in assay [5]. Besides, the GI50 in assay [6] is > 100 µM (inactive); in assay [7], > 100 µM (inactive); in [8], 81.7 µM (inactive); in assay [15] it was > 100 µM (inactive); in [9], > 100 µM (inactive); in assay [10], > 100 µM (inactive). Besides, the GI50 in assay [12] and in assay [13] was > 100 µM (inactive) in each case.
For `O=S(=O)(O)SC/C=C\CSS(=O)(=O)O`, the GI50 in assay [14], in assay [1], in assay [2], in [3], in [4] and in [6] was > 100 µM (inactive) each time. The GI50 in assay [7] is > 100 µM (inactive); in assay [8], > 100 µM (inactive); in assay [15], > 100 µM (inactive); in [9] it was > 100 µM (inactive); in [10], > 100 µM (inactive); in [11], 61.2 µM (inactive). Moreover, the GI50 in [12] and in [13] was > 100 µM (inactive) throughout.
On to `O=[N+]([O-])c1cccc(Nc2nc(Cl)nc(Cl)n2)c1`, for which the GI50 in assay [14], in [1], in assay [2], in assay [3], in assay [4] and in assay [5] was > 100 µM (inactive) in each case. In addition, the GI50 in [6], in assay [7], in assay [15], in [9], in assay [10] and in [11] was > 100 µM (inactive) each time. The GI50 in assay [12] and in assay [13] was > 100 µM (inactive) each time.
`COc1ccccc1-c1cc(=O)c2ccccc2[nH]1`: the GI50 in assay [14] was 40 µM (inactive); in assay [1], 73.6 µM (inactive); in assay [2], > 100 µM (inactive); in [3], > 100 µM (inactive); in [6] it was > 100 µM (inactive); in assay [7] it was 49 µM (inactive). The GI50 was > 100 µM (inactive) in assay [8]; > 100 µM (inactive) in assay [15]; 36.1 µM (inactive) in [9]; > 100 µM (inactive) in assay [10]; > 100 µM (inactive) in assay [11]; > 100 µM (inactive) in [12]. Further, the GI50 in [13] is 41.7 µM (inactive).
As to `Oc1ccc2c(c1)CC[N+]1=C2CCC2CCCC21` (stereo not given) [QUINDONIUM BROMIDE], the GI50 in assay [14], in assay [1], in [2], in [3], in assay [4] and in assay [5] was > 100 µM (inactive) throughout. The GI50 in assay [6], in assay [8], in assay [10], in assay [12] and in [13] was > 100 µM (inactive) each time.
As for `CCOc1ccc(NC(=O)CC2SC(Nc3ccc(Cl)cc3)=NC2=O)cc1` (stereo not given), the GI50 in assay [14], in [1], in assay [2], in [3], in [4] and in assay [5] was > 100 µM (inactive) in each case. The GI50 was > 100 µM (inactive) in assay [6]; > 100 µM (inactive) in assay [7]; > 100 µM (inactive) in assay [8]; > 100 µM (inactive) in [15]; 23.9 µM (inactive) in [9]; > 100 µM (inactive) in assay [10]. Moreover, the GI50 in assay [13] was > 100 µM (inactive).
